Experimental findings from patent US20070213359A1 (ACADIA Pharmaceuticals Inc., priority 2005, published 2007) are described below.

SMILES strings stand for the structures. Read-outs that look alike come from different tables or passages of the source.

The experiment addresses Ghrelin receptor (Homo sapiens, UniProt Q92847). In words: Receptor Selection and Amplification Technology (R-SAT) assay. Format: cell-based. Details: expressed in transfected cells; host or cells: NIH3T3. Conditions: for IC50: negative logarithm of ligand concentration causing 50% inhibition of constitutive receptor response, transfected NIH3T3 cells, '—' not defined (nd used separately), read-out: RSAT pIC50 (converted); for Emax: read-out: RSAT Eff(%).

Where [1] appears, read: percent inhibition at saturating ligand, normalized to reference ligand Substance P analog = 100%.

Sequence of Ghrelin receptor (Q92847 whole entry): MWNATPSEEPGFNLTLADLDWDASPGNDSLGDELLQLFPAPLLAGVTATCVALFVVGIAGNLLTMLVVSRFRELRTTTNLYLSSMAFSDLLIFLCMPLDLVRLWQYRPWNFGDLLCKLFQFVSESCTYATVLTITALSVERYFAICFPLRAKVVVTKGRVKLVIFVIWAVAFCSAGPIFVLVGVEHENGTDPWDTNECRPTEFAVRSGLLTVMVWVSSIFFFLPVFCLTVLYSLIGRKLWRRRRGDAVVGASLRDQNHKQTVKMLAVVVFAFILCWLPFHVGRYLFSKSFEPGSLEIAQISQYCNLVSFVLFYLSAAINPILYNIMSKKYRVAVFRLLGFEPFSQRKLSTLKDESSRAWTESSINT

Regarding `CC(=O)c1cn(CC(C)CN2CCC(c3nc4ccccc4s3)CC2)c2ccccc12` (centres unmarked), the IC50 was 2.51 µM. Moreover, the Emax under setting [1] is 78%.

On to `CC(=O)c1cn(CCCN2CCC(Oc3ccc(F)cc3)CC2)c2cc(Br)ccc12`, for which the IC50 was 2.51 µM. Besides, the Emax under setting [1] amounted to 64%.

For `CCC(=O)c1cn(CCCN2CCN(C(C)c3ccccc3)CC2)c2ccccc12` (centres unmarked), the IC50 was 2.51 µM. Under setting [1], the Emax was determined as 57%.

As for `CC(=O)c1cn(CCN2C3CCC2CC(O)(c2ccc(F)cc2)C3)c2ccccc12` (centres unmarked), the IC50 was 2.51 µM. Also, the Emax under setting [1] is -11%.

On to `CC(=O)CCc1cn(CCCN2CCC(c3nc4ccccc4s3)CC2)c2ccccc12`, for which the IC50 is 2.51 µM. The Emax under setting [1] came to 84%.

In the case of `COc1ccc2[nH]c3c(c2c1)CCN(CCCn1cc(C(=O)C(F)(F)F)c2ccccc21)C3`, the IC50 was 2.51 µM. In addition, the Emax under setting [1] amounted to 106%.

`CC(=O)c1cn(CCCCN2C3CCC2CC(Oc2ccc(Cl)cc2)C3)c2ccccc12` (centres unmarked): the IC50 is 3.16 µM. In addition, the Emax under setting [1] stood at 119%.

Turning to `CC(=O)c1cn(CC(O)CN2CCC(Oc3ccccc3Cl)CC2)c2ccccc12` (centres unmarked), the IC50 is 3.16 µM. The Emax under setting [1] stood at 69%.

Consider `CCCCC1CCN(CCCn2cc(C(C)=O)c3ccc(Br)cc32)CC1`, for which the IC50 is 3.16 µM. Besides, under setting [1], the Emax is 93%.

Turning to `CC(=O)c1cn(CC(O)CN2CCC(Oc3ccc(Cl)cc3)CC2)c2ccccc12` (centres unmarked), the IC50 is 3.16 µM. In addition, the Emax under setting [1] was found to be 73%.

For the molecule `CC(=O)CCc1cn(CCCN2C3CCC2CC(OCC2CC2)C3)c2ccccc12` (centres unmarked), the IC50 was 3.16 µM. Moreover, the Emax under setting [1] turned out to be 103%.

Regarding `COc1ccc2c(C(C)=O)cn(CCCN3CCC(C(C)c4ccccc4)CC3)c2c1` (centres unmarked), the IC50 was 3.16 µM. In addition, under setting [1], the Emax came out at 73%.

With `O=C(c1cn(CCCN2CCC(O)(Cc3ccccc3)CC2)c2ccccc12)C(F)(F)F`, the IC50 is 3.98 µM. For the same molecule, the Emax under setting [1] stood at 111%.

`CC(=O)c1cn(CC(C)CN2CCC(Cc3ccccc3)CC2)c2ccccc12` (centres unmarked): the IC50 is 3.98 µM. Under setting [1], the Emax came out at 121%.

Take `CC(=O)c1cn(CCCCN2CCC(Cc3ccccc3)CC2)c2ccccc12`: the IC50 is 3.98 µM. In addition, the Emax under setting [1] came out at 86%.

Turning to `COc1ccccc1C1CCN(CCCn2cc(CCC(C)=O)c3ccccc32)CC1`, the IC50 is 5.01 µM. Besides, the Emax under setting [1] turned out to be 78%.

Take `CC(=O)c1cn(CCCN2CCC(Oc3ccccc3Cl)CC2)c2cc(Br)ccc12`: the IC50 is 5.01 µM. For the same molecule, the Emax under setting [1] came to 67%.

For the molecule `CC(=O)c1cn(CCCN2CCC(C(=O)c3ccccc3)CC2)c2ccccc12`, the IC50 is 5.01 µM. Besides, the Emax under setting [1] was 64%.

On to `O=C(c1cn(CCCN2CCC(Cc3ccccc3)CC2)c2ccccc12)C(F)(F)F`, for which the IC50 was 6.31 µM. In addition, under setting [1], the Emax is 112%.

Turning to `CC(=O)c1cn(CC(O)CN2CCC(C(=O)c3ccccc3)CC2)c2ccccc12` (centres unmarked), the IC50 was 6.31 µM. Further, the Emax under setting [1] was 26%.

`CC(=O)c1cn(CCCNC2Cc3ccccc3C2)c2c(Cl)cccc12`: the IC50 was 6.31 µM. Also, the Emax under setting [1] stood at 96%.

Turning to `CCOC(=O)C1CCN(CCCn2cc(C(=O)CC)c3ccccc32)CC1`, the IC50 is 6.31 µM. Besides, the Emax under setting [1] came out at 39%.

Regarding `COc1cccc2c(C(C)=O)cn(CCCN3CCC(S(=O)(=O)c4ccc(Cl)cc4)CC3)c12`, the IC50 is 10 µM. Further, under setting [1], the Emax is 71%.

With `CC(=O)c1cn(CCCN2C3CCC2CC(Oc2ccc(Cl)cc2)C3)c2cc(Br)ccc12` (centres unmarked), the IC50 is 10 µM. Moreover, the Emax under setting [1] was determined as 74%.

Take `CC(=O)c1cn(CCCN2CCC(C(=O)c3ccccc3)CC2)c2ccc(Br)cc12`: the IC50 is 10 µM. Besides, under setting [1], the Emax is 60%.

In the case of `CCCOC1CCN(CCCn2cc(CCC(C)=O)c3ccccc32)CC1`, the IC50 was 15.8 µM. For the same molecule, the Emax under setting [1] is 75%.

For `CCC(=O)c1cn(CCCN2CCC(C(=O)c3ccccc3)CC2)c2ccccc12`, the IC50 was 15.8 µM. Also, under setting [1], the Emax worked out at 53%.

Regarding `COc1ccccc1C1CCN(CC(C)Cn2cc(C(C)=O)c3ccccc32)CC1` (centres unmarked), the IC50 is 15.8 µM. Also, under setting [1], the Emax was determined as 64%.

`CC(=O)c1cn(CCCN2CCC(Oc3ccccc3Cl)CC2)c2ccc(Br)cc12`: the IC50 was 15.8 µM. Further, under setting [1], the Emax amounted to 74%.

Turning to `CC(=O)c1cn(CCCN2CCC(c3nc(-c4cccnc4)no3)CC2)c2ncccc12`, the IC50 is 20 µM. Further, under setting [1], the Emax was determined as 55%.

Turning to `CCCOC1CCN(CC(O)Cn2cc(C(C)=O)c3ccccc32)CC1` (centres unmarked), the IC50 is 31.6 µM. Besides, under setting [1], the Emax turned out to be 18%.

For the molecule `COc1ccc2c(c1)c(C(C)=O)cn2CCCN1C2CCC1CC(OCC1CC1)C2` (centres unmarked), the IC50 is 31.6 µM. In addition, the Emax under setting [1] turned out to be 74%.

In the case of `O=C(c1cn(CCCN2C3CCC2CC(O)(c2ccc(F)cc2)C3)c2ccccc12)C(F)(F)F` (centres unmarked), the IC50 was 251 µM. Under setting [1], the Emax stood at 58%.

In the case of `CC(=O)c1cn(CCCN2CCC(C(=O)c3ccccc3)CC2)c2c(Cl)cccc12`, the IC50 is 1580 µM. In addition, the Emax under setting [1] worked out at 92%.

On to `COc1cccc2c(C#N)cn(CCCN3CCC(c4nc(-c5ccncc5)no4)CC3)c12`, for which the Emax under setting [1] was determined as 40%.

As to `CC(=O)c1c(C)n(CCCN2CCCC(Oc3ccc(Cl)cc3)C2)c2c(Br)cccc12` (centres unmarked), the Emax was 24%.

Consider `CC(=O)c1c(C)n(CCCN2CCCC(Cc3ccccc3Cl)C2)c2c(Br)cccc12` (centres unmarked), for which the Emax came to 5%.

On to `CC(=O)c1c(C)n(CCCN2CCC(Cc3ccccc3Cl)C2)c2c(Br)cccc12` (centres unmarked), for which the Emax was 38%.

`COc1cccc2c(C(C)=O)cn(CC(C)CN3CCCC(Oc4ccc(Cl)cc4)C3)c12` (centres unmarked): the Emax was -1%.

Turning to `COc1cccc2c(C(C)=O)cn(CC(C)CN3C4CCC3CC(Oc3ccc(F)cc3)C4)c12` (centres unmarked), the Emax turned out to be 44%.

In the case of `COc1cccc2c(C(C)=O)cn(CC(C)CN3CCC(CCOc4ccc(Cl)cc4)CC3)c12` (centres unmarked), the Emax worked out at 22%.

For `O=C(c1cn(CCCN2CCCC(Cc3ccccc3Cl)C2)c2ncccc12)C(F)(F)F` (centres unmarked), under setting [1], the Emax came to 27%.

Consider `O=C(c1cn(CCCN2CCC(Oc3cccc(Cl)c3)CC2)c2ncccc12)C(F)(F)F`, for which the Emax under setting [1] is 23%.

On to `CC(CN1C2CCC1CC(Oc1ccc(F)cc1)C2)Cn1cc(C(=O)C(F)(F)F)c2cccnc21` (centres unmarked), for which the Emax under setting [1] was 35%.

In the case of `CC(=O)c1cn(CCCN2CCCC(Oc3ccc(Cl)cc3)C2)c2ncccc12` (centres unmarked), the Emax under setting [1] is 53%.

On to `COc1cccc2c(C#N)cn(CCCN3CCCC(Oc4ccc(Cl)cc4)C3)c12` (centres unmarked), for which the Emax under setting [1] was found to be 48%.

For the molecule `CC(=O)c1cn(CCCN2CCCC(Oc3ccc(Cl)cc3)C2)c2c(C#N)cccc12` (centres unmarked), the Emax was found to be 31%.

Take `CC(=O)c1cn(CCCN2C3CCC2CC(CC(=O)c2ccc(Cl)cc2)C3)c2c(C#N)cccc12` (centres unmarked): the Emax amounted to 31%.

For the molecule `CCCCC1CCN(CCn2cc(C(C)=O)c3ccccc32)CC1`, the Emax stood at 23%.

Regarding `COc1ccc2[nH]c3c(c2c1)CCN(CC(C)Cn1c(=O)sc2ccccc21)C3` (centres unmarked), the Emax under setting [1] is -10%.

For `COc1ccc2[nH]c3c(c2c1)CCN(CCCCn1cc(C(C)=O)c2ccccc21)C3`, under setting [1], the Emax was found to be 9%.

On to `CC(=O)c1cn(CC(C)CN2CCC(C(=O)c3ccccc3)CC2)c2ccccc12` (centres unmarked), for which the Emax amounted to 2%.

Turning to `CC(=O)c1cn(CCCCN2CCC(C(=O)c3ccccc3)CC2)c2ccccc12`, the Emax amounted to 38%.

For `CC(=O)c1cn(CCCCN2CCC(Oc3ccc(F)cc3)CC2)c2ccccc12`, the Emax worked out at 41%.

With `CC(=O)c1cn(CC(O)CN2CCN(C(C)c3ccccc3)CC2)c2ccccc12` (centres unmarked), the Emax is 23%.

On to `COc1cccc2c(C#N)cn(CCCN3CCN(CCOc4ccc(Cl)c5ccccc45)CC3)c12`, for which the Emax under setting [1] amounted to 21%.

For `CC(CN1CCC2(CC1)CC(=O)c1ccccc1O2)Cn1cc(C(=O)C(F)(F)F)c2cccnc21` (centres unmarked), the Emax under setting [1] turned out to be 26%.

Consider `O=C(c1cn(CCCN2CCCC(Oc3ccc(Cl)cc3)C2)c2ncccc12)C(F)(F)F` (centres unmarked), for which the Emax under setting [1] is 2%.

With `O=C(c1cn(CCCN2CCC(CCOc3ccc(Cl)cc3)CC2)c2ncccc12)C(F)(F)F`, the Emax under setting [1] turned out to be 37%.

For the molecule `COc1cccc2c(C#N)cn(CCCN3CCC4(CC3)CC(=O)c3ccccc3O4)c12`, under setting [1], the Emax was 41%.

For `COc1cccc2c(C#N)cn(CCCN3CCC(CCOc4ccc(Cl)cc4)CC3)c12`, the Emax under setting [1] is -3%.

`O=C(c1cn(CCCNC2Cc3ccccc3C2)c2ncccc12)C(F)(F)F`: the Emax under setting [1] was -3%.

Take `O=C(c1cn(CCCN2CCN(c3ncc(C(F)(F)F)cc3Cl)CC2)c2ncccc12)C(F)(F)F`: under setting [1], the Emax amounted to 27%.

As to `O=C(c1cn(CCCN2CCN(CCOc3ccc(Cl)cc3)CC2)c2ncccc12)C(F)(F)F`, the Emax under setting [1] turned out to be 38%.

For `O=C(c1cn(CCCNCCOc2ccccc2)c2ncccc12)C(F)(F)F`, the Emax under setting [1] was 26%.

Regarding `O=C(c1cn(CCCN2CCCN(CCc3ccccc3)CC2)c2ncccc12)C(F)(F)F`, under setting [1], the Emax amounted to 51%.

Regarding `O=C(c1cn(CCCN2CCC(c3nc(-c4ccncc4)no3)CC2)c2ncccc12)C(F)(F)F`, under setting [1], the Emax came out at 31%.

`O=C(c1cn(CCCN2CCC(c3nc(-c4cccnc4)no3)CC2)c2ncccc12)C(F)(F)F`: the Emax under setting [1] came out at 72%.

Consider `CC(=O)c1cn(CCCN2CCN(CCOc3ccc(Cl)cc3)CC2)c2ncccc12`, for which, under setting [1], the Emax is 62%.

As to `CC(=O)c1cn(CCCN2CCC(c3nc(-c4ccncc4)no3)CC2)c2ncccc12`, the Emax under setting [1] amounted to 88%.

Regarding `COc1cccc2c(C#N)cn(CCCN3CCN(CCOc4ccc(Cl)cc4)CC3)c12`, the Emax under setting [1] is -23%.

For the molecule `COc1cccc2c(C#N)cn(CCCN3CCN(CCOc4ccccc4)CC3)c12`, the Emax under setting [1] was 42%.

For `COc1cccc2c(C#N)cn(CCCN3CCN(Cc4ccc(Cl)cc4Cl)CC3)c12`, under setting [1], the Emax is 30%.

Turning to `COc1cccc2c(C#N)cn(CCCN3CCC(c4nc(-c5cccnc5)no4)CC3)c12`, the Emax under setting [1] was 23%.

Take `O=C(c1cn(CCCN2CCN(CCOc3ccccc3)CC2)c2ncccc12)C(F)(F)F`: the Emax under setting [1] was 27%.

Turning to `CC(=O)c1cn(CCCN2C3CCC2CC(CC(=O)c2ccc(Cl)cc2)C3)c2ncccc12` (centres unmarked), the Emax under setting [1] was determined as 11%.
